The experiment deals with T1, thyroid hormone receptor β (TRβ) (Homo sapiens, UniProt P10828).
T1 construct: gene THRB
As to the kind of experiment: biochemical.

T1 sequence (P10828 whole entry): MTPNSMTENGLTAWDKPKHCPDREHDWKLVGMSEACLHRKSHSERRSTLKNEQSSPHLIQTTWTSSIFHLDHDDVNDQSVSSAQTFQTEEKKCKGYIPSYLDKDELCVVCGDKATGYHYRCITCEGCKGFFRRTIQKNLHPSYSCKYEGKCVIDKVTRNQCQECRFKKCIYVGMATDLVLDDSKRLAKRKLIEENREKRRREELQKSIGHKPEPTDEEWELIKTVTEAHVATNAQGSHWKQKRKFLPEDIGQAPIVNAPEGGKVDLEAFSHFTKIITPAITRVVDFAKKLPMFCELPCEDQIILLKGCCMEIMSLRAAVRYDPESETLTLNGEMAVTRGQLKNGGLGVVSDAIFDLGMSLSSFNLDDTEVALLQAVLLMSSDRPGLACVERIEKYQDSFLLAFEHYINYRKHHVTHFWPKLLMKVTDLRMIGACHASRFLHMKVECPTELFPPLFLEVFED

The Ki is a dissociation constant, usually derived from enzyme kinetics or from competition with a known ligand. Turning to `Cc1cc(OCC(=O)O)cc(C)c1Cc1cc(C#Cc2ccc([N+](=O)[O-])cc2)c(O)c(C(C)C)c1` [NH-3], the Ki was 1.31 nM.

Values taken from article PMC12523147, “Thyroid hormone receptor beta signaling is a targetable driver of prostate cancer growth” (Molecular Cancer, 2025).
